From patent US20250340554A1, “5-Amino-1H-Pyrrolo[3,2-b]Pyridine-2-Carboxamide Derivatives as MTA-Cooperative Inhibitors of PRMT5” (BeOne Medicines I GmbH, priority 2023, published 2025)

How the values were obtained:
HCT116-MTAP-KO = assay: Compounds cell killing in HCT116 isogenic pair (Cell Titer-Glo viability), MTAP-KO cells; type: cell-based; settings: Homo sapiens, HCT-116, 144 h, 6 days, 0-10 μM compound, * = more than 50% viability inhibition at tested concentration without a full curve
Text: (§1) HCT116 cell line was obtained from ATCC (CCL-247). It has a mutation in codon 13 of the ras proto-oncogene and can be used as a positive control for PCR assays of mutation in this codon. HCT116-MTAP-KO was knocked-out-MTAP-gene based HCT116, and one single clone was passed for this assay. HCT116-mock-RNA-KO was knocked-out-mock-gene based HCT116 with MTAP wildtype genotype. The base medium for HCT116 isogenic pair is RPMI 1640, HEPES (Gibco, 22400105). To make the complete growth medium, add the following components to the base medium: fetal bovine serum to a final concentration of 10% (Gibco, 10099-141C). The cell line was grown in a humidified 5% CO2 atmosphere at 37° C. and regularly tested for the presence of mycoplasma with MycoAlert™ PLUS Mycoplasma Detection Kit (Lonza, LT07-710).
(§2) • Seed HCT116-mock-RNA-KO (400/well) or HCT116-MTAP-KO (400/well) cells into a 96-well plate (Greiner: 655090), 100 μL/well. • Incubate at 37° C., 5% CO2, overnight. • Add 50 μL fresh growth-medium containing serial dilution of compounds for a final compound concentration of 0-10 μM to each well. • Incubate at 37° C., 5% CO2, 6 days. • The cell viability detected by Cell Titer-Glo (Promega, G7573). Add 70 μL of CellTiter-Glo® reagent in each well. • Incubate at room temperature for 10 minutes to stabilize luminescent signal. • Analyze with Microplate Reader (TECAN, SPARK) and fit IC50 using Prism® 9.

HCT116-mock-RNA-KO = assay: Compounds cell killing in HCT116 isogenic pair (Cell Titer-Glo viability), mock-RNA-KO cells (MTAP wildtype); type: cell-based; settings: Homo sapiens, HCT-116, 144 h, 6 days, 0-10 μM compound
Text: as §1, §2

SMILES	IC50 (HCT116-MTAP-KO) [nM]	IC50 (HCT116-mock-RNA-KO) [nM]
Cc1cc2[nH]c(C(=O)N(Cc3ccc(-c4c(F)cncc4F)cn3)[C@@H]3CCCc4cccnc43)cc2nc1N [Example A3, (R)-5-amino-N-((3′,5′-difluoro-[3,4′-bipyridin]-6-yl)methyl)-6-methyl-N-(5,6,7,8-tetrahydroquinolin-8-yl)-1H-pyrrolo[3,2-b]pyridine-2-carboxamide]	0.008	49
Cc1cc2[nH]c(C(=O)N(Cc3ccc(-c4c(F)cccc4F)cn3)[C@@H]3CCCc4cccnc43)c(I)c2nc1N [Example A19, (R)-5-amino-N-((5-(2,6-difluorophenyl)pyridin-2-yl)methyl)-3-iodo-6-methyl-N-(5,6,7,8-tetrahydroquinolin-8-yl)-1H-pyrrolo[3,2-b]pyridine-2-carboxamide]	< 4.6	288
Cc1cc2[nH]c(C(=O)N(Cc3ccc(-c4c(C)cnn4C)cc3F)C3CCCc4cccnc43)cc2nc1N (centres unmarked) [Example A18, 5-amino-N-(4-(1,4-dimethyl-1H-pyrazol-5-yl)-2-fluorobenzyl)-6-methyl-N-(5,6,7,8-tetrahydroquinolin-8-yl)-1H-pyrrolo[3,2-b]pyridine-2-carboxamide]	21	2580
Cc1cc2[nH]c(C(=O)N(Cc3ccc(-c4c(F)cccc4F)cn3)CC3CC3)cc2nc1N [Example B5, 5-amino-N-(cyclopropylmethyl)-N-((5-(2,6-difluorophenyl)pyridin-2-yl)methyl)-6-methyl-1H-pyrrolo[3,2-b]pyridine-2-carboxamide]	606	3620
